Data from patent US8163718B2, “Nucleoside analogues containing phosphonate or phosphonamide groups” (Gilead Sciences, Inc., priority 2008, dated 2012).

Tested on: naturally occurring non-Hodgkin's lymphoma
Assay: Efficacy in a dog with naturally occurring non-Hodgkin's lymphoma (RECIST)
Assay type: in vivo
Parameters: key to Lymphnode R PSLN size / Lymphnode L PopLN size / Lymphnode L SMLN size / Lymphnode R SMLN size / Lymphnode L PSLN size: WNL refers to when a lymph node is decreased to a size considered within normal ranges for that node
Details: for % change of sum of lymphnodes: vs baseline sum; for Sum of lymphnodes: Day 0 pre treatment sum 16.9
Procedure: Compound (21) was evaluated for efficacy in a dog with naturally occurring non-Hodgkin's lymphoma (NHL). Canine NHL has proven to be a relevant model for preclinical evaluation of new therapeutics, both for initial induction and rescue of drug-resistant relapse (Reference Vail D M, Thamm D H. Spontaneously occurring tumors in companion animals as models for drug development. In: Teisher B A, ed. Anticancer Drug Development Guide. 2nd ed. Totowa (NJ): Humana Press Inc; 2004; 259-286.) Evaluation of novel therapeutic approaches in dogs with spontaneous cancer offers potential benefit to canine patients and a rapid assessment of therapeutic index. Because the tumors arise spontaneously in an immunologically intact host and have greater heterogeneity than passaged cell lines, it is not surprising that responses to standard chemotherapeutic agents in canine malignancies are similar to those of the corresponding tumors in man and that the preclinical results attained may be more predictive of the activity in humans (references; Khanna C, Paoloni M. Translation of new cancer treatments from pet dogs to humans. Nature Rev Cancer. 2008; 8:7-16.; Vail D M, Young K M. Canine lymphoma and lymphoid leukemia. In: Withrow S J, Vail D M, eds. Small Animal Clinical Oncology. 4th Ed. St. Louis (MO): Saunders; 2007. p. 699-733.) Non-Hodgkin's lymphoma in dogs represents a relatively homogenous population with respect to histological type as defined by the REAL/WHO or NCI-Working Formulation schema (i.e., 85% are medium- to high-grade B-cell NHL) with the majority being diffuse large B-cell lymphoma (reference Jacobs R M, Messick J B, Valli V E. Tumors of the hemolymphatic system. In: Meuten D J, editor. Tumors in Domestic Animals. 4th Ed. Ames (IA): Iowa State Press; 2002:119-198).
Compound (21) was administered at a dose of 0.3 mg/kg of body weight by 30 minute IV infusion in Sterile Saline Injection (0.9% sodium chloride for injection) (total volume 2 ml/kg or 100 ml) once every 21 days to a dog that had non-Hodgkin's lymphoma involving multiple lymphnodes. Diagnosis was confirmed by histological evaluation of the tumor. The effect of treatment on the tumor was measured using the Response Evaluation Criteria in Solid Tumors (RECIST) Guideline (Therasse et al 2000). The size of the tumors and response to treatment was evaluated by in these peripherally accessible lymph nodes, by measuring the longest dimension using callipers and evaluating changes in the individual tumor measurement and their sums. […] Confirmation was done by cytological examination of an aspirated biopsy to confirm the absence of tumor cells.

[1] = Day 7 (printed under the Day 1 column)
[2] = Day 14 (printed under the Day 7 column)
[3] = Day 21 (printed under the Day 14 column)
[4] = Day 28 (printed under the Day 21 column)
[5] = Day 42 (printed under the Day 28 column)

`CCCOc1nc(N)nc2c1ncn2CCOCP(=O)(N1CCC[C@H]1C(=O)OCC)N1CCC[C@H]1C(=O)OCC` [Example 21] was tested, and the “% change of sum of lymphnodes” value (Day 1 (printed under the Day 0 column)) was −13.0%, the “Lymphnode L PopLN longest dimension” value (Day 1, 0.3 mg/kg IV once every 21 days, Day 0 pre treatment 2.3) was 2.1 cm and the “Lymphnode R SMLN longest dimension” value (Day 1, 0.3 mg/kg IV once every 21 days, Day 0 pre treatment 2.9) was 3.1 cm. The “Lymphnode L SMLN longest dimension” value (Day 1, 0.3 mg/kg IV once every 21 days, Day 0 pre treatment 3.1) was 2.0 cm, the “Lymphnode R PSLN longest dimension” value (Day 1, 0.3 mg/kg IV once every 21 days, Day 0 pre treatment 3.6) was 3.6 cm and the “Lymphnode L PSLN longest dimension” value (Day 1, 0.3 mg/kg IV once every 21 days, Day 0 pre treatment 5.0) was 3.9 cm. The Sum of lymphnodes (Day 1, 0.3 mg/kg IV once every 21 days) was 14.7 cm, the “Change of sum of lymphnodes” value (Day 1 vs Day 0 pre treatment sum 16.9) was −2.2 cm and the “Response (RECIST)” value [1] was “PR (Partial Response (PR) if at least a 30% decrease in the sum of the LD of target lesions, taking as reference the baseline sum)”. For the same molecule, the “% change of sum of lymphnodes” value [1] was −66.3%, the “Lymphnode L PopLN longest dimension” value (Day 7, 0.3 mg/kg IV once every 21 days, Day 0 pre treatment 2.3) was 1.6 cm and the “Lymphnode R SMLN longest dimension” value (Day 7, 0.3 mg/kg IV once every 21 days, Day 0 pre treatment 2.9) was 1.0 cm. The “Lymphnode L SMLN longest dimension” value (Day 7, 0.3 mg/kg IV once every 21 days, Day 0 pre treatment 3.1) was 1.1 cm, the “Lymphnode R PSLN longest dimension” value (Day 7, 0.3 mg/kg IV once every 21 days, Day 0 pre treatment 3.6) was 1.0 cm and the “Lymphnode L PSLN longest dimension” value (Day 7, 0.3 mg/kg IV once every 21 days, Day 0 pre treatment 5.0) was 1.0 cm. The Sum of lymphnodes (Day 7) was 5.7 cm, the “Change of sum of lymphnodes” value (Day 7 vs Day 0 pre treatment sum 16.9) was −11.2 cm and the “Response (RECIST)” value [2] was “PR (Partial Response (PR) if at least a 30% decrease in the sum of the LD of target lesions, taking as reference the baseline sum)”. The “% change of sum of lymphnodes” value [2] was −69.2%, the “Lymphnode L PopLN longest dimension” value (Day 14, 0.3 mg/kg IV once every 21 days, Day 0 pre treatment 2.3) was 1.0 cm and the “Lymphnode R SMLN longest dimension” value (Day 14, 0.3 mg/kg IV once every 21 days, Day 0 pre treatment 2.9) was 1.0 cm. For the same molecule, the “Lymphnode L SMLN longest dimension” value (Day 14, 0.3 mg/kg IV once every 21 days, Day 0 pre treatment 3.1) was 1.0 cm, the “Lymphnode R PSLN longest dimension” value (Day 14, 0.3 mg/kg IV once every 21 days, Day 0 pre treatment 3.6) was 1.0 cm and the “Lymphnode L PSLN longest dimension” value (Day 14, 0.3 mg/kg IV once every 21 days, Day 0 pre treatment 5.0) was 1.2 cm. For the same molecule, the Sum of lymphnodes (Day 14) was 5.2 cm, the “Change of sum of lymphnodes” value (Day 14 vs Day 0 pre treatment sum 16.9) was −11.7 cm and the “Lymphnode L PopLN longest dimension” value (Day 21 (Treatment #2), 0.3 mg/kg IV once every 21 days, Day 0 pre treatment 2.3) was 1.3 cm. For the same molecule, the “Lymphnode R SMLN longest dimension” value (Day 21 (Treatment #2), 0.3 mg/kg IV once every 21 days, Day 0 pre treatment 2.9) was 2.0 cm, the “Lymphnode L SMLN longest dimension” value (Day 21 (Treatment #2), 0.3 mg/kg IV once every 21 days, Day 0 pre treatment 3.1) was 2.3 cm and the “Lymphnode R PSLN longest dimension” value (Day 21 (Treatment #2), 0.3 mg/kg IV once every 21 days, Day 0 pre treatment 3.6) was 2.7 cm. The “Lymphnode L PSLN longest dimension” value (Day 21 (Treatment #2), 0.3 mg/kg IV once every 21 days, Day 0 pre treatment 5.0) was 2.8 cm, the Sum of lymphnodes (Day 21 (Treatment #2)) was 11.1 cm and the “Response (RECIST)” value [3] was “PR (Partial Response (PR) if at least a 30% decrease in the sum of the LD of target lesions, taking as reference the baseline sum)”. The “% change of sum of lymphnodes” value [3] was −34.3%, the “Change of sum of lymphnodes” value (Day 21 vs Day 0 pre treatment sum 16.9) was −5.8 cm and the “Response (RECIST)” value [4] was “PR (Partial Response (PR) if at least a 30% decrease in the sum of the LD of target lesions, taking as reference the baseline sum)”. The “% change of sum of lymphnodes” value [4] was −67.5%, the “Lymphnode R SMLN longest dimension” value (Day 28, 0.3 mg/kg IV once every 21 days, Day 0 pre treatment 2.9) was 1.0 cm and the “Lymphnode L SMLN longest dimension” value (Day 28, 0.3 mg/kg IV once every 21 days, Day 0 pre treatment 3.1) was 1.5 cm. The “Lymphnode R PSLN longest dimension” value (Day 28, 0.3 mg/kg IV once every 21 days, Day 0 pre treatment 3.6) was 1.5 cm, the “Lymphnode L PSLN longest dimension” value (Day 28, 0.3 mg/kg IV once every 21 days, Day 0 pre treatment 5.0) was 1.5 cm and the Sum of lymphnodes (Day 28) was 5.5 cm. The “Change of sum of lymphnodes” value (Day 28 vs Day 0 pre treatment sum 16.9) was −11.4 cm, the “Lymphnode L PopLN size” value (Day 42 (Treatment #3), 0.3 mg/kg IV once every 21 days, Day 0 pre treatment 2.3) was “WNL” and the “Lymphnode R SMLN size” value (Day 42 (Treatment #3), 0.3 mg/kg IV once every 21 days, Day 0 pre treatment 2.9) was “WNL”. The “Lymphnode L SMLN size” value (Day 42 (Treatment #3), 0.3 mg/kg IV once every 21 days, Day 0 pre treatment 3.1) was “WNL**”, the “Lymphnode R PSLN size” value (Day 42 (Treatment #3), 0.3 mg/kg IV once every 21 days, Day 0 pre treatment 3.6) was “WNL” and the “Lymphnode L PSLN size” value (Day 42 (Treatment #3), 0.3 mg/kg IV once every 21 days, Day 0 pre treatment 5.0) was “WNL”. The “Response (RECIST)” value [5] was “CR (Complete Response (CR) if lymphnodes returned to a size within normal limits)”, the “% change of sum of lymphnodes” value [5] was −100% and the Response to treatment (after one treatment, 0.3 mg/kg IV) was “Partial Response”. The “reduction in tumor size” value (starting on Day 7 after the first treatment, continued improvement to day 42) was “significant reduction in tumor size” and the Response to treatment (with continued treatment, 0.3 mg/kg IV once every 21 days) was “Complete Response with complete elimination of the tumor”.
